Assay results from ChEMBL document CHEMBL1134031, “Dimeric L-dopa derivatives as potential prodrugs” (Bioorg Med Chem Lett, 2001).
“And” between values parts separate entries of the source, which are not always exact repeats. Identical values can stand only once.

Columns and labels:
physchem [1] = conditions: dog, in vivo, pH 7.4
Description: Half life period at a pH 7.4 was determined

[2] = human, plasma
Description: (§1) Observed rate constant in 80% human plasma at 37 degree Centigrade

[3] = pH 7.4
Description: Observed rate constant at a pH of 7.4

in vitro [4] = conditions: rat, 80% rat plasma
Description: Half life period in 80% rat plasma at 37 degree Centigrade

physchem [5] = conditions: octanol/phosphate buffer, pH 7.4
Description: Partition coefficient value in octanol and phosphate buffer (log P) at pH of 7.4 was determined.

physchem [6] = conditions: pH 1.3
Description: Half life period at a pH 1.3 was determined

[7] = human, plasma; remark: listed apart in the source
Description: as §1

[8] = pH 1.3
Description: Observed rate constant at a pH of 1.3

[9] = human, plasma; remark: listed apart in the source
Description: (§2) Half life period in 80% human plasma at 37 degree Centigrade

in vitro [10] = conditions: human, 80% human plasma, T1/2
Description: as §2

Description for Rattus norvegicus: Observed rate constant in 80% rat plasma at 37 degree Centigrade

Which half-life (physchem [1]) does the source give for `COC(=O)[C@H](Cc1ccc(OC(C)=O)c(OC(C)=O)c1)NC(=O)N[C@@H](Cc1ccc(OC(C)=O)c(OC(C)=O)c1)C(=O)OC` here?
The half-life was 14.2 h.

What about the k1 obs [2] of the same molecule?
The k1 obs was 0.0068 min⁻¹.

What about the K obs [3] of the same molecule?
The K obs was 0.049 h⁻¹.

And the half-life (in vitro [4])?
Its half-life is 0.407 h.

And the logD (physchem [5])?
The logD was 1.04.

And the half-life (physchem [6])?
The half-life was 16.5 h.

What about the k2 obs [7] of the same molecule?
Its k2 obs is 0.0025 min⁻¹.

And the K obs [8]?
Its K obs is 0.042 h⁻¹.

What about the K obs (Rattus norvegicus) of the same molecule?
Its K obs is 0.028 min⁻¹.

What about the T1/2 [9] of the same molecule?
Its T1/2 is 1.698 h and 4.62 h.

What does the source list for `COC(=O)[C@H](Cc1ccc(OC(C)=O)c(OC(C)=O)c1)NC(=O)CCCCC(=O)N[C@@H](Cc1ccc(OC(C)=O)c(OC(C)=O)c1)C(=O)OC`?
half-life (physchem [1]): 17.3 h; k1 obs [2]: 0.081 min⁻¹; K obs [3]: 0.04 h⁻¹; half-life (in vitro [4]): 0.0683 h; logD (physchem [5]): 0.92; half-life (physchem [6]): 48.8 h; k2 obs [7]: 0.01 min⁻¹; K obs [8]: 0.014 h⁻¹; K obs (Rattus norvegicus): 0.17 min⁻¹

For `COC(=O)[C@H](Cc1ccc(OC(C)=O)c(OC(C)=O)c1)NC(=O)CCC(=O)N[C@@H](Cc1ccc(OC(C)=O)c(OC(C)=O)c1)C(=O)OC`, which half-life (physchem [1]) is on record?
The half-life was 16.2 h.

What about the k1 obs [2] of the same molecule?
The k1 obs was 0.052 min⁻¹.

What about the K obs [3] of the same molecule?
Its K obs is 0.043 h⁻¹.

And the half-life (in vitro [4])?
The half-life was 0.0333 h.

What about the logD (physchem [5]) of the same molecule?
Its logD is 0.85.

What about the half-life (physchem [6]) of the same molecule?
The half-life was 55.4 h.

What about the k2 obs [7] of the same molecule?
The k2 obs was 0.0086 min⁻¹.

What about the K obs [8] of the same molecule?
The K obs was 0.13 h⁻¹.

What about the K obs (Rattus norvegicus) of the same molecule?
The K obs was 0.34 min⁻¹.

For `COC(=O)[C@H](Cc1ccc(OC(C)=O)c(OC(C)=O)c1)NC(=O)CCCC(=O)N[C@@H](Cc1ccc(OC(C)=O)c(OC(C)=O)c1)C(=O)OC`, which half-life (physchem [1]) is on record?
The half-life was 13.9 h.

And the k1 obs [2]?
Its k1 obs is 0.011 min⁻¹.

What about the K obs [3] of the same molecule?
The K obs was 0.05 h⁻¹.

And the half-life (in vitro [4])?
The half-life was 0.0483 h.

And the logD (physchem [5])?
Its logD is 0.87.

And the half-life (physchem [6])?
Its half-life is 68.1 h.

And the k2 obs [7]?
Its k2 obs is 0.0045 min⁻¹.

And the K obs [8]?
The K obs was 0.01 h⁻¹.

And the K obs (Rattus norvegicus)?
The K obs was 0.24 min⁻¹.

What about the T1/2 [9] of the same molecule?
The T1/2 was 1.05 h and 2.57 h.

With `COC(=O)[C@H](Cc1ccc(OC(C)=O)c(OC(C)=O)c1)NC(=O)C(=O)N[C@@H](Cc1ccc(OC(C)=O)c(OC(C)=O)c1)C(=O)OC` as the molecule, how does the half-life (physchem [1]) read?
The half-life was 14.2 h.

What about the k1 obs [2] of the same molecule?
Its k1 obs is 0.0083 min⁻¹.

What about the K obs [3] of the same molecule?
The K obs was 0.049 h⁻¹.

What about the half-life (in vitro [4]) of the same molecule?
Its half-life is 0.102 h.

What about the logD (physchem [5]) of the same molecule?
The logD was 0.73.

And the half-life (physchem [6])?
Its half-life is 20 h.

What about the k2 obs [7] of the same molecule?
The k2 obs was 0.0045 min⁻¹.

What about the K obs [8] of the same molecule?
The K obs was 0.032 h⁻¹.

What about the K obs (Rattus norvegicus) of the same molecule?
Its K obs is 0.11 min⁻¹.

And the T1/2 [9]?
The T1/2 was 2.547 h.

And the half-life (in vitro [10])?
The half-life was 1.38 h.
